Experimental data published in ChEMBL document CHEMBL3779788, “Facile synthesis of 1,3-thiazolidin-4-ones as antitubercular agents” (Bioorg Med Chem Lett, 2016).
Values after ≈ are worked out from the molar mass of the structure shown.

Columns and labels:
[1] = Cytotoxicity against human A549 cells at 30 ug/mL by MTT assay; assay type: cell-based; conditions: read-out: INH
[2] = test system: Mycobacterium tuberculosis; assay: Antitubercular activity against dormant Mycobacterium tuberculosis H37Ra assessed as growth inhibition at 30 ug/mL by XTT reduction menadione assay; assay type: functional; conditions: read-out: GI
[3] = test system: Mycobacterium tuberculosis; assay: Antitubercular activity against dormant Mycobacterium tuberculosis H37Ra assessed as growth inhibition at 10 ug/mL by XTT reduction menadione assay; assay type: functional; conditions: read-out: GI
Staphylococcus aureus = assay: Antibacterial activity against Staphylococcus aureus after 18 hrs by broth dilution method; assay type: functional, organism-based
[4] = Cytotoxicity against human A549 cells at 10 ug/mL by MTT assay; assay type: cell-based; conditions: read-out: INH
[5] = test system: Mycobacterium bovis BCG str. ATCC 35743; assay: Antitubercular activity against dormant Mycobacterium bovis BCG ATCC 35743 assessed as growth inhibition at 30 ug/mL by NR assay; assay type: functional
[6] = test system: Mycobacterium bovis BCG str. ATCC 35743; assay: Antitubercular activity against dormant Mycobacterium bovis BCG ATCC 35743 assessed as growth inhibition at 10 ug/mL by NR assay; assay type: functional
[7] = Cytotoxicity against human HCT116 cells at 3 ug/mL by MTT assay; assay type: cell-based, HCT-116; conditions: read-out: INH
[8] = test system: Mycobacterium bovis BCG str. ATCC 35743; assay: (§1) Antitubercular activity against dormant Mycobacterium bovis BCG ATCC 35743 by NR assay; assay type: functional
[9] = as §1; assay type: functional, Mycobacterium bovis BCG str. ATCC 35743
[10] = Cytotoxicity against human HCT116 cells at 30 ug/mL by MTT assay; assay type: cell-based, HCT-116; conditions: read-out: INH
[11] = Cytotoxicity against human MCF7 cells at 30 ug/mL by MTT assay; assay type: cell-based; conditions: read-out: INH
MCF7 = assay: (§2) Cytotoxicity against human MCF7 cells after 48 and 72 hrs by MTT assay; assay type: cell-based; conditions: mcf7, 72 h
[12] = as §2; assay type: cell-based; conditions: MCF7 cells
Pseudomonas = assay: Antibacterial activity against Pseudomonas after 18 hrs by broth dilution method; assay type: functional, organism-based
[13] = test system: Mycobacterium bovis BCG str. ATCC 35743; assay: Antitubercular activity against dormant Mycobacterium bovis BCG ATCC 35743 assessed as growth inhibition at 3 ug/mL by NR assay; assay type: functional
[14] = Cytotoxicity against human MCF7 cells at 10 ug/mL by MTT assay; assay type: cell-based; conditions: read-out: INH
[15] = Cytotoxicity against human HCT116 cells at 10 ug/mL by MTT assay; assay type: cell-based, HCT-116; conditions: read-out: INH
[16] = Cytotoxicity against human MCF7 cells at 3 ug/mL by MTT assay; assay type: cell-based; conditions: read-out: INH
[17] = Cytotoxicity against human HCT116 cells after 48 and 72 hrs by MTT assay; assay type: cell-based, HCT-116; conditions: for GI50 at 72 h: HCT116 cells; for GI90: hct-116, 72 h
Escherichia coli = assay: Antibacterial activity against Escherichia coli after 18 hrs by broth dilution method; assay type: functional, organism-based
[18] = Cytotoxicity against human A549 cells at 3 ug/mL by MTT assay; assay type: cell-based; conditions: read-out: INH
Bacillus subtilis = assay: Antibacterial activity against Bacillus subtilis after 18 hrs by broth dilution method; assay type: functional, organism-based
[19] = test system: Mycobacterium tuberculosis; assay: Antitubercular activity against dormant Mycobacterium tuberculosis H37Ra assessed as growth inhibition at 3 ug/mL by XTT reduction menadione assay; assay type: functional; conditions: read-out: GI
[20] = (§3) Cytotoxicity against human A549 cells after 48 and 72 hrs by MTT assay; assay type: cell-based; conditions: A549 cells
A549 = assay: as §3; assay type: cell-based; conditions: a549, 72 h
[21] = test system: Mycobacterium tuberculosis; assay: Antitubercular activity against dormant Mycobacterium tuberculosis H37Ra by XTT reduction menadione assay; assay type: functional, organism-based

Row | SMILES | cytotoxicity at 30 ug/mL [1] | inhibition of growth at 30 µg/mL [2] | inhibition of growth at 10 µg/mL [3] | IC50 (Staphylococcus aureus) | MIC (Staphylococcus aureus) | cytotoxicity at 10 ug/mL [4] | growth inhibition (GI) [5] | growth inhibition (GI) [6] | cytotoxicity at 3 ug/mL [7] | IC90 [8] | IC50 [9] | cytotoxicity at 30 ug/mL [10] | cytotoxicity at 30 ug/mL [11] | GI90 (MCF7) | GI50 at 72 h [12] | IC50 (Pseudomonas) | MIC (Pseudomonas) | growth inhibition (GI) [13] | cytotoxicity at 10 ug/mL [14] | cytotoxicity at 10 ug/mL [15] | further results
1 | O=C1CSC(c2ccccc2)N1c1ccccc1 (stereo unspecified) | 0% | 34.5% | 31.7% | > 30 µg/mL | > 30 µg/mL | 0% | 80.7% | 15.4% | 3.3% | > 30 µg/mL | 20.7 µg/mL (≈ 81.1 µM) | 16.8% | 31.7% | > 100 µg/mL | > 100 µg/mL | > 30 µg/mL | > 30 µg/mL | 14.2% | 5.3% | 3.2% | cytotoxicity at 3 ug/mL [16]: -4.2%; GI50 at 72 h [17]: > 100 µg/mL; GI90 [17]: > 100 µg/mL; IC50 (Escherichia coli): > 30 µg/mL; MIC (Escherichia coli): > 30 µg/mL; cytotoxicity at 3 ug/mL [18]: 0%; IC50 (Bacillus subtilis): > 30 µg/mL; MIC (Bacillus subtilis): > 30 µg/mL; inhibition of growth at 3 µg/mL [19]: 5%; GI50 at 72 h [20]: > 100 µg/mL; GI90 (A549): > 100 µg/mL; IC50 [21]: > 30 µg/mL; IC90 [21]: > 30 µg/mL
2 | Cc1ccc(C2SCC(=O)N2c2ccc(F)cc2)cc1 (stereo unspecified) | -11.4% | 51.3% | -37% | > 30 µg/mL | > 30 µg/mL | 0% | -3.9% | -4% | 1.1% | > 30 µg/mL | > 30 µg/mL | 29.6% | 37.5% | > 100 µg/mL | > 100 µg/mL | > 30 µg/mL | > 30 µg/mL | -3% | 37.7% | 9.1% | cytotoxicity at 3 ug/mL [16]: 22.3%; GI50 at 72 h [17]: > 100 µg/mL; GI90 [17]: > 100 µg/mL; IC50 (Escherichia coli): > 30 µg/mL; MIC (Escherichia coli): > 30 µg/mL; cytotoxicity at 3 ug/mL [18]: 0%; IC50 (Bacillus subtilis): > 30 µg/mL; MIC (Bacillus subtilis): > 30 µg/mL; inhibition of growth at 3 µg/mL [19]: 10.9%; GI50 at 72 h [20]: > 100 µg/mL; GI90 (A549): > 100 µg/mL; IC50 [21]: 29.8 µg/mL (≈ 104 µM); IC90 [21]: > 30 µg/mL
